The record followed here is patent US20230331675A1, “AROMATIC ETHYLENE COMPOUND AND PREPARATION METHOD THEREFOR, AND INTERMEDIATE, PHARMACEUTICAL COMPOSITION, AND APPLICATION THEREOF” (GUANGZHOU MAXINOVEL PHARMACEUTICALS CO., LTD., priority 2020, published 2023).

Sequence of PD-1/PD-L1 (Q9NZQ7 19-238): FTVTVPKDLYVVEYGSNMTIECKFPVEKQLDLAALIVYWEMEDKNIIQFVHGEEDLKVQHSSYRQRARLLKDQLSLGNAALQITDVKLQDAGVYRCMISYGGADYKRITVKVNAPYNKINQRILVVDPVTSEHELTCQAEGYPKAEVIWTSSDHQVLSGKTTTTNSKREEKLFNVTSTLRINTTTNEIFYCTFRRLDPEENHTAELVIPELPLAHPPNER

This assay has as its target PD-1/PD-L1 (Homo sapiens (Human), UniProt Q9NZQ7). Briefly: Homogeneous time-resolved fluorescence (HTRF) binding assay. The conditions noted are these: CisBio kit, read-out: IC50 of compounds binding to PD-1/PD-L1. An excerpt:
Effect embodiment 1: Homogenouse time-resolved fluorescence
Homogeneous time-resolved fluorescence (HTRF) binding assay was used to determine the binding ability of the compound of the present disclosure to PD-1/PD-L1.
The purchased kit (CisBio, #64CUS000C-1) contained reagents required for assays such as PD-1, PD-L1, anti-tag1-Eu, Anti-tag2-XL665, dilute buffer, and detection buffer.
1. The compound was formulated to 10 concentrations with a 3-fold gradient with 100% DMSO.
2. The DMSO solution of the compound was added to the dilute buffer, mixed thoroughly, then transferred to a 96-well plate.
3. PD-L1 was diluted with dilute buffer, then added to the above 96-well plate.
4. PD-1 was diluted with dilute buffer and added to the above 96-well plate, which was then incubated at room temperature for 30 minutes.
5. A portion of anti-tag1-Eu and a portion of anti-tag2-XL665 were added to the detection buffer, mixed thoroughly and transferred to the above 96-well plate.
6. The mixture in the above 96-well plate was incubated at room temperature for 1 to 24 hours.
7. HTRF values were read with Envision.
In general terms: Time-resolved FRET reads energy transfer from a long-lived donor to a nearby acceptor.
Turning to `COc1cc(/C(F)=C/c2cccc(-c3ccccc3)c2C)c(C(F)(F)F)cc1CN1CCCC[C@H]1C(=O)O` [Compound 64, (S,Z)-1-(4-(1-Fluoro-2-(2-methyl-[1,1′-biphenyl]-3-yl)vinyl)2-methoxy-5-trifluoromethylbenzyl)piperidine-2-carboxylic acid], the IC50 was determined as 29.5 nM. Next, `Cc1cc(/C=C/c2cccc(-c3ccccc3)c2C)c(Cl)cc1CN1CCNC[C@H]1C(=O)O` [Compound 23, (S,E)-1-(5-Chloro-2-methyl-4-(2-(2-methyl-[1,1′-biphenyl]-3-yl)vinyl)benzyl)piperazine-2-carboxylic acid]: 186 nM; `COc1cc(/C=C/c2cccc(-c3ccccc3)c2C)c(Cl)cc1CN1CCCC[C@H]1C(=O)O` [Compound 58, (S,E)-1-(5-Chloro-2-methoxy-4-(2-(2-methyl-[1,1′-biphenyl]-3-yl)vinyl)benzyl)piperidine-2-carboxylic acid]: 6.8 nM. Under `Cc1cc(CN2CCCC[C@H]2C(=O)O)c(OCCO)cc1/C=C/c1cccc(-c2ccccc2)c1C#N` [Compound 26] stands 4.7 nM; under `COc1cc(/C=C/c2cccc(-c3ccccc3)c2C#N)c(C(F)(F)F)cc1CN1CCCC[C@H]1C(=O)O` [Compound 7, (S,E)-1-(4-(2-(2-Cyano-[1,1′-biphenyl]-3-yl)vinyl)-2-methoxy-5-trifluoromethylbenzyl)piperidine-2-carboxylic acid], 1.9 nM; under `Cc1cc(/C=C/c2cccc(-c3ccccc3)c2C#N)c(Cl)cc1CN1CCNC[C@H]1C(=O)O` [Compound 13, (S,E)-1-(5-Chloro-4-(2-(2-cyano-[1,1′-biphenyl]-3-yl)vinyl)-2-methylbenzyl)piperazine-2-carboxylic acid], 46 nM. `Cc1cc(CN2CCCC[C@H]2C(=O)O)c(OCCCCC#N)cc1/C=C/c1cccc(-c2ccccc2)c1C#N` [Compound 15, (S,E)-1-(4-(2-(2-Cyano-[1,1′-biphenyl]-3-yl)vinyl)-2-(4-cyanobutoxy)-5-methylbenzyl)piperidine-2-carboxylic acid]: the IC50 was determined as 2.1 nM. In the case of `Cc1cc(/C=C/c2cccc(-c3ccccc3)c2C#N)c(Cl)cc1CN1CCN(C)C[C@H]1C(=O)O` [Compound 14, (S,E)-1-(5-Chloro-4-(2-(2-cyano-[1,1′-biphenyl]-3-yl)vinyl)-2-methylbenzyl)-4-methylpiperazine-2-carboxylic acid], the IC50 is 85.2 nM. Regarding `Cc1cc(CN2CCCC[C@H]2C(=O)O)c(OCC#N)cc1/C=C/c1cccc(-c2ccccc2)c1C#N` [Compound 48, (S,E)-1-(4-(2-(2-Cyano-[1,1′-biphenyl]-3-yl)vinyl)-2-(cyanomethoxy)-5-methylbenzyl)piperidine-2-carboxylic acid], the IC50 came out at 8 nM. Under `COCc1cc(/C=C/c2cccc(-c3ccccc3)c2C#N)c(C(F)(F)F)cc1CN1CCOC[C@H]1C(=O)O` [Compound 50, (S,E)-4-(4-(2-(2-Cyano-[1,1′-biphenyl]-3-yl)vinyl)-2-(methoxymethyl)-5-trifluoromethylbenzyl)morpholine-3-carboxylic acid] stands 141 nM; under `N#Cc1c(/C=C/c2cc(CO)c(CN3CCNC[C@H]3C(=O)O)cc2C(F)(F)F)cccc1-c1ccccc1` [Compound 28, (S,E)-1-(4-(2-(2-Cyano-[1,1′-biphenyl]-3-yl)vinyl)-2-hydroxymethyl-5-trifluoromethylbenzyl)piperazine-2-carboxylic acid], 135 nM; under `Cc1c(/C=C/c2cc(OCCF)c(CN3CCCC[C@H]3C(=O)O)cc2C(F)(F)F)cccc1-c1ccccc1` [Compound 87, (S,E)-1-(2-(2-Fluoroethoxy)-4-(2-(2-methyl-[1,1′-biphenyl]-3-yl)vinyl)-5-(trifluoromethyl)benzyl)piperidine-2-carboxylic acid], 2.8 nM. Next, `[2H]C([2H])([2H])Oc1cc(/C=C/c2cccc(-c3ccccc3)c2C#N)c(CN2CCCC[C@H]2C(=O)O)cc1Cl` [Compound 52, (S,E)-1-(5-Chloro-2-(2-(2-cyano-[1,1′-biphenyl]-3-yl)vinyl)-4-(methoxy-d3)benzyl)piperidine-2-carboxylic acid]: greater than 10000 nM.
